This passage reports percent cross reactivity results from US10088490B2, “Assay for analytes using multiple receptors” (Siemens Healthcare Diagnostics Inc., priority 2010, dated 2018).

The test system of one experiment is Antibody A specific for cortisol (clone 16DC/17.7, IgG1κ). Nature of the experiment: LOCI competitive cortisol immunoassay, cross-reactivity screening with Biotinylated Antibody A Reagent. The format is binding. The note with it: 100% A Biotinylated Antibody; steroid-stripped serum with cortisol (5 ng/dL). How it is done: (§1) The antibodies were subjected to analytical size exclusion chromatography prior to any manipulations.
(§2) NHS-PEO4-Biotin was dissolved fresh at 10 mg/mL in Antibody Dialysis Buffer. […] The mixture was rocked at 25° C. for exactly 3 hours. A 200 mM solution of glycine was prepared by dissolving 750 mg glycine in Antibody Dialysis Buffer to a total volume of 50 mL. At the end of the 3-hour biotinylation reaction, 1.52 mL of the 200 mM glycine solution was added to the reaction mixture. The quenched reaction mixture was rocked an additional 60 minutes at 25° C.
(§3) The biotinylated antibody was then purified using preparatory HPLC using Antibody Dialysis Buffer as the mobile phase. […] This reagent was designated as the Biotinylated Antibody Reagent.
(§4) The assay used for screening purposes was conducted on the DIMENSION® VISTA® instrument (system) (Siemens Healthcare Diagnostics Inc., Newark Del.). Initially, 20 μL Biotinylated Antibody Reagent with 15 μL system water was added to the vessel. After 22 seconds, 15 μL sample with 15 μL system water were added to the vessel. After almost 4 minutes, 20 μL Chemibead Reagent with 15 μL system water were added to the vessel. Approximately 7 minutes later, 20 μL Sensibead Reagent with 135 μL system water was added to the vessel. The LOCI® read was taken after approximately 5 minutes. The assay from the first reagent addition to the final read took approximately 16 minutes. The contents of the vessel when the final read is taken were as follows: 2 ng/mL Biotinylated Antibody Reagent, 4 μg/mL Chemibead Reagent, 56 μg/mL Sensibead Reagent, and […] sample. The assay is a competitive format, which means that the greater the concentration of analyte in the sample, the smaller is the signal generation. This is because a detectable complex is formed by the Biotinylated Antibody Reagent, Chemibead Reagent, and Sensibead Reagent in the absence of analyte. The presence of analyte decreases the proportion of Biotinylated Antibody Reagent that is free to form detectable complexes.
(§5) Initial testing used Biotinylated Antibody A Reagent with the other reagents and the methodology described above to analyze the steroid-stripped serum with cortisol. The panel of 34 cross-reactants were individually added to the steroid-stripped serum with a defined concentration of cortisol (5 ng/dL) and assayed. Cross-reactivity data were calculated as follows:
(§6) [formula] The same testing was performed using Biotinylated Antibody L Reagent. The compilation of the percent cross-reactivities for the 34 compounds is referred to as the cross-reactivity profile. The apparent cortisol concentration is the cortisol value obtained when testing a sample containing cortisol and the interfering substance by the above test method that also detects the interfering substance to some degree.
In turn, `C[C@]12C[C@H](O)[C@H]3[C@@H](CCC4=CC(=O)CC[C@@]43C)[C@@H]1CC[C@@H]2C(=O)CO` [corticosterone] showed a percent cross reactivity of 0.6%.

Regarding `C[C@]12CC[C@@H](O)C[C@@H]1CC[C@@H]1[C@@H]2[C@@H](O)C[C@@]2(C)[C@H]1CC[C@]2(O)C(=O)CO` [allotetrahydrocortisol], the percent cross reactivity turned out to be 4.7%.

In turn, `C[C@]12CC[C@H]3[C@@H](CCC4=CC(=O)CC[C@@]43C)[C@@H]1CC[C@@H]2C(=O)CO` [11-deoxycorticosterone] came in with a percent cross reactivity of 0.7%.

Compound `C[C@]12CC[C@@H](O)C[C@H]1CC[C@@H]1[C@@H]2CC[C@@]2(C)[C@H]1CC[C@]2(O)C(=O)CO` [tetrahydro-11-deoxycortisol] registered a percent cross reactivity of 0.3%.

In the case of `C[C@]12CCC(=O)C=C1CC[C@@H]1[C@@H]2C(=O)C[C@@]2(C)[C@H]1CC[C@]2(O)[C@@H](O)CO` [20α-dihydrocortisone], the percent cross reactivity came out at 1.5%.

The compound `C[C@]12CC[C@@H](O)C[C@H]1CC[C@@H]1[C@@H]2C(=O)C[C@]2(C)C(=O)CC[C@@H]12` [11-ketoetiocholanolone] yielded a percent cross reactivity of 0.0%.

`C[C@H]1C[C@@H]2[C@H]([C@@H](O)C[C@@]3(C)[C@H]2CC[C@]3(O)C(=O)CO)[C@@]2(C)C=CC(=O)C=C12` [6-methyl-prednisolone]: the percent cross reactivity amounted to 6.4%.

Turning to `CC(=O)[C@@]1(O)CC[C@H]2[C@@H]3CC=C4C[C@@H](O)CC[C@]4(C)[C@H]3CC[C@@]21C` [17β-hydroxypregnenolone], the percent cross reactivity turned out to be 0.1%.

On to `CC(=O)[C@H]1CC[C@H]2[C@@H]3CCC4=CC(=O)CC[C@]4(C)[C@H]3CC[C@]12C` [progesterone], for which the percent cross reactivity is 0.6%.

Compound `C[C@]12C=CC(=O)C=C1CC[C@@H]1[C@@H]2C(=O)C[C@@]2(C)[C@H]1CC[C@]2(O)C(=O)CO` [prednisone] registered a percent cross reactivity of 26.5%.

The subject of the next experiment is Antibody L specific for cortisol (clone XM210, IgG2a). Briefly: LOCI competitive cortisol immunoassay, cross-reactivity screening with Biotinylated Antibody L Reagent. The format is binding. To be noted: 100% L Biotinylated Antibody; steroid-stripped serum with cortisol (5 ng/dL). How it is done:
as §1, §2, §3, §4, §5, §6
In the case of `C[C@]12C[C@H](O)[C@H]3[C@@H](CCC4=CC(=O)CC[C@@]43C)[C@@H]1CC[C@@H]2C(=O)CO` [corticosterone], the percent cross reactivity was 3.0%.

As for `C[C@]12CC[C@@H](O)C[C@@H]1CC[C@@H]1[C@@H]2[C@@H](O)C[C@@]2(C)[C@H]1CC[C@]2(O)C(=O)CO` [allotetrahydrocortisol], the percent cross reactivity came to 8.1%.

Turning to `C[C@]12CC[C@H]3[C@@H](CCC4=CC(=O)CC[C@@]43C)[C@@H]1CC[C@@H]2C(=O)CO` [11-deoxycorticosterone], the percent cross reactivity was 0.8%.

With `C[C@]12CC[C@@H](O)C[C@H]1CC[C@@H]1[C@@H]2CC[C@@]2(C)[C@H]1CC[C@]2(O)C(=O)CO` [tetrahydro-11-deoxycortisol], the percent cross reactivity came out at 0.2%.

As to `C[C@]12CCC(=O)C=C1CC[C@@H]1[C@@H]2C(=O)C[C@@]2(C)[C@H]1CC[C@]2(O)[C@@H](O)CO` [20α-dihydrocortisone], the percent cross reactivity worked out at 0.2%.

`C[C@]12CC[C@@H](O)C[C@H]1CC[C@@H]1[C@@H]2C(=O)C[C@]2(C)C(=O)CC[C@@H]12` [11-ketoetiocholanolone]: the percent cross reactivity was 0.0%.

Turning to `C[C@H]1C[C@@H]2[C@H]([C@@H](O)C[C@@]3(C)[C@H]2CC[C@]3(O)C(=O)CO)[C@@]2(C)C=CC(=O)C=C12` [6-methyl-prednisolone], the percent cross reactivity came to 10.7%.

`CC(=O)[C@@]1(O)CC[C@H]2[C@@H]3CC=C4C[C@@H](O)CC[C@]4(C)[C@H]3CC[C@@]21C` [17β-hydroxypregnenolone] yielded a percent cross reactivity of 0.1%.

The compound `CC(=O)[C@H]1CC[C@H]2[C@@H]3CCC4=CC(=O)CC[C@]4(C)[C@H]3CC[C@]12C` [progesterone] yielded a percent cross reactivity of 0.6%.

As for `C[C@]12C=CC(=O)C=C1CC[C@@H]1[C@@H]2C(=O)C[C@@]2(C)[C@H]1CC[C@]2(O)C(=O)CO` [prednisone], the percent cross reactivity is given as 0.6%.

The test system of the next experiment is mixture of Biotinylated Antibody A Reagent and Biotinylated Antibody L Reagent. Nature of the experiment: LOCI competitive cortisol immunoassay, cross-reactivity with mixtures of Biotinylated Antibody A and L Reagents. The format is binding. To be noted: 70% A 30% L Biotinylated Antibody; steroid-stripped serum with cortisol. How it is done:
as §4, §5, §6
A further study was performed by mixing Biotinylated Antibody A Reagent with Biotinylated Antibody L Reagent in a 50:50 mixture; 80% Biotinylated Antibody A Reagent: 20% Biotinylated Antibody L Reagent; 75% Biotinylated Antibody A Reagent: 25% Biotinylated Antibody L Reagent; and 70% Biotinylated Antibody A Reagent: 30% Biotinylated Antibody L Reagent. […] These reagents were used to test cross-reactivity in stripped serum with cortisol.
`C[C@]12C[C@H](O)[C@H]3[C@@H](CCC4=CC(=O)CC[C@@]43C)[C@@H]1CC[C@@H]2C(=O)CO` [corticosterone]: the percent cross reactivity is given as 1.8%.

Take `C[C@]12CC[C@@H](O)C[C@@H]1CC[C@@H]1[C@@H]2[C@@H](O)C[C@@]2(C)[C@H]1CC[C@]2(O)C(=O)CO` [allotetrahydrocortisol]: the percent cross reactivity amounted to 7.1%.

For the compound `C[C@]12CC[C@H]3[C@@H](CCC4=CC(=O)CC[C@@]43C)[C@@H]1CC[C@@H]2C(=O)CO` [11-deoxycorticosterone], the percent cross reactivity amounted to 0.8%.

Consider `C[C@]12CC[C@@H](O)C[C@H]1CC[C@@H]1[C@@H]2CC[C@@]2(C)[C@H]1CC[C@]2(O)C(=O)CO` [tetrahydro-11-deoxycortisol], for which the percent cross reactivity amounted to 0.2%.

For `C[C@]12CCC(=O)C=C1CC[C@@H]1[C@@H]2C(=O)C[C@@]2(C)[C@H]1CC[C@]2(O)[C@@H](O)CO` [20α-dihydrocortisone], the percent cross reactivity was determined as 0.4%.

In the case of `C[C@]12CC[C@@H](O)C[C@H]1CC[C@@H]1[C@@H]2C(=O)C[C@]2(C)C(=O)CC[C@@H]12` [11-ketoetiocholanolone], the percent cross reactivity amounted to 0.0%.

For `C[C@H]1C[C@@H]2[C@H]([C@@H](O)C[C@@]3(C)[C@H]2CC[C@]3(O)C(=O)CO)[C@@]2(C)C=CC(=O)C=C12` [6-methyl-prednisolone], the percent cross reactivity was 8.3%.

For `CC(=O)[C@@]1(O)CC[C@H]2[C@@H]3CC=C4C[C@@H](O)CC[C@]4(C)[C@H]3CC[C@@]21C` [17β-hydroxypregnenolone], the percent cross reactivity came out at 0.1%.

As to `CC(=O)[C@H]1CC[C@H]2[C@@H]3CCC4=CC(=O)CC[C@]4(C)[C@H]3CC[C@]12C` [progesterone], the percent cross reactivity was 0.6%.

For `C[C@]12C=CC(=O)C=C1CC[C@@H]1[C@@H]2C(=O)C[C@@]2(C)[C@H]1CC[C@]2(O)C(=O)CO` [prednisone], the percent cross reactivity stood at 1.1%.

Staying with this experiment, now noted: 75% A 25% L Biotinylated Antibody; steroid-stripped serum with cortisol.
`C[C@]12C[C@H](O)[C@H]3[C@@H](CCC4=CC(=O)CC[C@@]43C)[C@@H]1CC[C@@H]2C(=O)CO` [corticosterone]: the percent cross reactivity is on record as 1.5%.

Regarding `C[C@]12CC[C@@H](O)C[C@@H]1CC[C@@H]1[C@@H]2[C@@H](O)C[C@@]2(C)[C@H]1CC[C@]2(O)C(=O)CO` [allotetrahydrocortisol], the percent cross reactivity was 6.5%.

With `C[C@]12CC[C@H]3[C@@H](CCC4=CC(=O)CC[C@@]43C)[C@@H]1CC[C@@H]2C(=O)CO` [11-deoxycorticosterone], the percent cross reactivity is listed as 0.8%.

As to `C[C@]12CC[C@@H](O)C[C@H]1CC[C@@H]1[C@@H]2CC[C@@]2(C)[C@H]1CC[C@]2(O)C(=O)CO` [tetrahydro-11-deoxycortisol], the percent cross reactivity is reported as 0.2%.

As to `C[C@]12CCC(=O)C=C1CC[C@@H]1[C@@H]2C(=O)C[C@@]2(C)[C@H]1CC[C@]2(O)[C@@H](O)CO` [20α-dihydrocortisone], the percent cross reactivity was determined as 0.5%.

As to `C[C@]12CC[C@@H](O)C[C@H]1CC[C@@H]1[C@@H]2C(=O)C[C@]2(C)C(=O)CC[C@@H]12` [11-ketoetiocholanolone], the percent cross reactivity turned out to be 0.0%.

`C[C@H]1C[C@@H]2[C@H]([C@@H](O)C[C@@]3(C)[C@H]2CC[C@]3(O)C(=O)CO)[C@@]2(C)C=CC(=O)C=C12` [6-methyl-prednisolone]: the percent cross reactivity is 7.5%.

On to `CC(=O)[C@@]1(O)CC[C@H]2[C@@H]3CC=C4C[C@@H](O)CC[C@]4(C)[C@H]3CC[C@@]21C` [17β-hydroxypregnenolone], for which the percent cross reactivity was 0.1%.

Take `CC(=O)[C@H]1CC[C@H]2[C@@H]3CCC4=CC(=O)CC[C@]4(C)[C@H]3CC[C@]12C` [progesterone]: the percent cross reactivity came out at 0.6%.

Consider `C[C@]12C=CC(=O)C=C1CC[C@@H]1[C@@H]2C(=O)C[C@@]2(C)[C@H]1CC[C@]2(O)C(=O)CO` [prednisone], for which the percent cross reactivity amounted to 1.3%.

Still in this experiment, the particulars now being: 80% A 20% L Biotinylated Antibody; steroid-stripped serum with cortisol.
With `C[C@]12C[C@H](O)[C@H]3[C@@H](CCC4=CC(=O)CC[C@@]43C)[C@@H]1CC[C@@H]2C(=O)CO` [corticosterone], the percent cross reactivity is 1.4%.

With `C[C@]12CC[C@@H](O)C[C@@H]1CC[C@@H]1[C@@H]2[C@@H](O)C[C@@]2(C)[C@H]1CC[C@]2(O)C(=O)CO` [allotetrahydrocortisol], the percent cross reactivity is given as 6.0%.

With `C[C@]12CC[C@H]3[C@@H](CCC4=CC(=O)CC[C@@]43C)[C@@H]1CC[C@@H]2C(=O)CO` [11-deoxycorticosterone], the percent cross reactivity was 0.8%.

As for `C[C@]12CC[C@@H](O)C[C@H]1CC[C@@H]1[C@@H]2CC[C@@]2(C)[C@H]1CC[C@]2(O)C(=O)CO` [tetrahydro-11-deoxycortisol], the percent cross reactivity is 0.2%.

Turning to `C[C@]12CCC(=O)C=C1CC[C@@H]1[C@@H]2C(=O)C[C@@]2(C)[C@H]1CC[C@]2(O)[C@@H](O)CO` [20α-dihydrocortisone], the percent cross reactivity was found to be 0.5%.

Regarding `C[C@]12CC[C@@H](O)C[C@H]1CC[C@@H]1[C@@H]2C(=O)C[C@]2(C)C(=O)CC[C@@H]12` [11-ketoetiocholanolone], the percent cross reactivity is given as 0.0%.

For `C[C@H]1C[C@@H]2[C@H]([C@@H](O)C[C@@]3(C)[C@H]2CC[C@]3(O)C(=O)CO)[C@@]2(C)C=CC(=O)C=C12` [6-methyl-prednisolone], the percent cross reactivity was found to be 7.2%.

Regarding `CC(=O)[C@@]1(O)CC[C@H]2[C@@H]3CC=C4C[C@@H](O)CC[C@]4(C)[C@H]3CC[C@@]21C` [17β-hydroxypregnenolone], the percent cross reactivity stood at 0.1%.

`CC(=O)[C@H]1CC[C@H]2[C@@H]3CCC4=CC(=O)CC[C@]4(C)[C@H]3CC[C@]12C` [progesterone]: the percent cross reactivity stood at 0.6%.

`C[C@]12C=CC(=O)C=C1CC[C@@H]1[C@@H]2C(=O)C[C@@]2(C)[C@H]1CC[C@]2(O)C(=O)CO` [prednisone]: the percent cross reactivity was found to be 1.5%.
